Reference: patent publication US20250019370A1, “L-LYSINE SALT OF 4-CHLORO-5-[4-(2,6-DICHLOROPHENYL)SULFONYLPIPERAZIN-1-YL]-1-BENZOFURAN-2-CARBOXYLIC ACID AND VARIOUS FORMS THEREOF” (ENYO PHARMA, priority 2023, published 2025)

Assays:
[1] = Polymorph screening (solids analysed by XRPD); type: physicochemical; settings: form I as starting material
Procedure: A polymorph screening was performed on EYP001 L-lysine salt crystalline form I (form I as starting material unless otherwise specified).
A number of unique materials with different patterns were produced, including crystalline forms I-IV and an amorphous material. All solids from the screening experiments were analysed by XRPD analysis and the resulting patterns compared to that of the reference. The observed solids and their ways of obtention are described in Table 16.

[2] = Pharmacokinetic study Experiment #3, oral administration in rats; type: in vivo, rat; settings: 10 mg EqEYP001/Kg
Procedure: In a third study (Experiment #3), EYP001 and EYP001 L-lysine salt Form I in aqueous formulations (0.5% CMC, 0.25% Tween 80, water) were orally administrated at a dose of 10 mg EqEYP001/Kg in 6-8 male rats for each compound. Blood samples were taken at 0.25 h, 0.5 h, 1 h, 2 h, 4 h, 6 h, 8 h, 12 h, and 24 h after oral administration.

[3] = Solubility kinetics in FeSSIF medium; type: physicochemical; settings: for Soluble fraction: 37 ° C.; for Soluble fraction / pH: listed as EYP001 L-Lysine salt (Form I); for pH: pH printed with the soluble fraction
Procedure: The solubility kinetics of the salt forms as well as the native EYP001 free acid form were determined in FaSSIF and FeSSIF media, and in a pH 4.5 acetate buffer as detailed below: The samples were prepared by adding an excess of each tested bulk (salt or native EYP001) to a given volume of test medium. […] In FaSSIF medium, the soluble concentration was assessed after 24 hours of stirring. […] At each time point, the “supernatant” was isolated and diluted in a solvent mixture allowing its injection into the chromatographic system. The concentration in solution in the test medium was determined by HPLC with external standardization.

[4] = Entry 1: no solvent, 23% RH stress
[5] = Entry 2: no solvent, 40° C./75% RH stress
[6] = Entry 3: no solvent, 59% RH stress
[7] = Entry 7: no solvent, melt quench
[8] = Entry 8: no solvent, compression
[9] = Entry 13: DMSO, slurry (20° C.)
[10] = Entry 14: EtOAc, slurry (5° C.)
[11] = Entry 15: water, slurry (5° C.)
[12] = Entry 16: THF, flash evaporation
[13] = Entry 17: THF, flash evaporation
[14] = Entry 18: acetone, flash evaporation
[15] = Entry 19: DMSO, flash evaporation
[16] = Entry 20: EtOAc, flash evaporation
[17] = Entry 21: IPA, flash evaporation
[18] = Entry 22: water, flash evaporation
[19] = Entry 23: MeOH, flash evaporation
[20] = Entry 24: EtOH, flash evaporation
[21] = Entry 25: heptane, flash evaporation
[22] = Entry 26: EtOH, flash evaporation
[23] = Entry 27: THF/water (82:18% v/v), flash evaporation
[24] = Entry 29: acetone, slurry (5° C.)
[25] = Entry 30: DMSO, slurry (20° C.)
[26] = Entry 31: EtOAc, slurry (5° C.)
[27] = Entry 33: water, slurry (5° C.)
[28] = Entry 36: heptane, slurry (5° C.)
[29] = Entry 37: THF/water (82:18% v/v), slurry (5° C.)
[30] = Entry 39: acetone, slurry (60° C.)
[31] = Entry 40: DMSO, slurry (60° C.)
[32] = Entry 41: EtOAc, slurry (60° C.)
[33] = Entry 43: water, slurry (60° C.)
[34] = Entry 44: MeOH, slurry (60° C.)
[35] = Entry 45: EtOH, slurry (60° C.)
[36] = Entry 46: heptane, slurry (60° C.)
[37] = Entry 47: EtOH /water (96:4% v/v), slurry (60° C.)
[38] = Entry 49: acetone, vapour stress
[39] = Entry 56: heptane, vapour stress
[40] = Entry 58: THF/water (82:18% v/v), anti-solvent THF, vapour diffusion
[41] = Entry 59: THF/water (82:18% v/v), anti-solvent IPA, vapour diffusion
[42] = Entry 60: THF/water (82:18% v/v), anti-solvent EtOAc, vapour diffusion
[43] = Entry 61: acetone/water (50:50% v/v), slow cool
[44] = Entry 62: DMSO/water (80:20% v/v), slow cool
[45] = Entry 64: IPA/water (80:20% v/v), slow cool
[46] = Entry 65: MEOH/water (84:16% v/v), slow cool
[47] = Entry 66: THF/water (82:18% v/v), slow cool
[48] = Entry 67: THF/water (82:18% v/v), crash precipitation
[49] = Entry 69: DMSO, anti-solvent EtOAc, crash precipitation
[50] = Entry 70: THF/water (82:18% v/v), temperature cycle
[51] = Entry 71: DMSO/water (80:20% v/v), temperature cycle
[52] = Entry 72: MeOH/water (84:16% v/v), temperature cycle
[53] = male rats, versus EYP001 free acid

NCCCC[C@H](N)C(=O)O.O=C(O)c1cc2c(Cl)c(N3CCN(S(=O)(=O)c4c(Cl)cccc4Cl)CC3)ccc2o1 [EYP001 L-lysine salt Form I, L-lysine salt of 4-chloro-5-[4-(2,6-dichlorophenyl)sulfonylpiperazin-1-yl]-1-benzofuran-2-carboxylic acid]
Results [1, 4]: solid | XRPD [1, 4]: Form I | Results [1, 5]: solid | XRPD [1, 5]: Form I | Results [1, 6]: solid | XRPD [1, 6]: Form I | Results [1, 7]: solid | XRPD [1, 7]: Amorphous | Results [1, 8]: solid | XRPD [1, 8]: Form I | Results ([1]; Entry 10: no solvent, milling): solid | XRPD ([1]; Entry 10: no solvent, milling): Amorphous | Results ([1]; Entry 12: THF, slurry (50° C.)): solid | XRPD ([1]; Entry 12: THF, slurry (50° C.)): Amorphous | Results [1, 9]: solid | XRPD [1, 9]: Form I | Results [1, 10]: solid | XRPD [1, 10]: Form I | Results [1, 11]: solid | XRPD [1, 11]: Form III | Results [1, 12]: no solid | XRPD [1, 12]: Amorphous | Results [1, 13]: solid | XRPD [1, 13]: Form II | Results [1, 14]: solid | XRPD [1, 14]: Amorphous | Results [1, 15]: solid | XRPD [1, 15]: Form I | Results [1, 16]: solid | XRPD [1, 16]: Amorphous | Results [1, 17]: solid | XRPD [1, 17]: Amorphous | Results [1, 18]: solid | XRPD [1, 18]: Form I | Results [1, 19]: solid | XRPD [1, 19]: Form I | Results [1, 20]: solid | XRPD [1, 20]: Form I | Results [1, 21]: solid | XRPD [1, 21]: Form II | Results [1, 22]: solid | XRPD [1, 22]: Form I | Results [1, 23]: solid | XRPD [1, 23]: Form I | Results ([1]; Entry 28: THF, slurry (5° C.)): solid | XRPD ([1]; Entry 28: THF, slurry (5° C.)): Form I | Results [1, 24]: solid | XRPD [1, 24]: Form I | Results [1, 25]: solid | XRPD [1, 25]: Amorphous | Results [1, 26]: solid | XRPD [1, 26]: Form I | Results ([1]; Entry 32: IPA, slurry (5° C.)): solid | XRPD ([1]; Entry 32: IPA, slurry (5° C.)): Form I | Results [1, 27]: solid | XRPD [1, 27]: Form III | Results ([1]; Entry 34: MeOH, slurry (5° C.)): solid | XRPD ([1]; Entry 34: MeOH, slurry (5° C.)): Form IV | Results ([1]; Entry 35: EtOH, slurry (5° C.)): solid | XRPD ([1]; Entry 35: EtOH, slurry (5° C.)): Form I | Results [1, 28]: solid | XRPD [1, 28]: Amorphous | Results [1, 29]: solid | XRPD [1, 29]: Form I | Results ([1]; Entry 38: THF, slurry (60° C.)): solid | XRPD ([1]; Entry 38: THF, slurry (60° C.)): Form I | Results [1, 30]: solid | XRPD [1, 30]: Amorphous | Results [1, 31]: solid | XRPD [1, 31]: Form I | Results [1, 32]: solid | XRPD [1, 32]: Form I | Results ([1]; Entry 42: IPA, slurry (60° C.)): solid | XRPD ([1]; Entry 42: IPA, slurry (60° C.)): Form I | Results [1, 33]: solid | XRPD [1, 33]: Form III | Results [1, 34]: solid | XRPD [1, 34]: Form I | Results [1, 35]: solid | XRPD [1, 35]: Form I | Results [1, 36]: solid | XRPD [1, 36]: Amorphous | Results [1, 37]: solid | XRPD [1, 37]: Form I | Results ([1]; Entry 48: THF, vapour stress): solid | XRPD ([1]; Entry 48: THF, vapour stress): Amorphous | Results [1, 38]: solid | XRPD [1, 38]: Amorphous | Results ([1]; Entry 50: DMSO, vapour stress): solid | XRPD ([1]; Entry 50: DMSO, vapour stress): Amorphous | Results ([1]; Entry 51: EtOAc, vapour stress): solid | XRPD ([1]; Entry 51: EtOAc, vapour stress): Form I | Results ([1]; Entry 52: IPA, vapour stress): solid | XRPD ([1]; Entry 52: IPA, vapour stress): Form I | Results ([1]; Entry 53: water, vapour stress): solid | XRPD ([1]; Entry 53: water, vapour stress): Form I | Results ([1]; Entry 54: MeOH, vapour stress): solid | XRPD ([1]; Entry 54: MeOH, vapour stress): Form I | Results ([1]; Entry 55: EtOH, vapour stress): solid | XRPD ([1]; Entry 55: EtOH, vapour stress): Form I | Results [1, 39]: solid | XRPD [1, 39]: Amorphous | Results ([1]; Entry 57: THF/water (82:18% v/v), vapour stress): solution | Results [1, 40]: solid | XRPD [1, 40]: Form I | Results [1, 41]: solid | XRPD [1, 41]: Form I | Results [1, 42]: solid | XRPD [1, 42]: Form I | Results [1, 43]: solid | XRPD [1, 43]: Form I | Results [1, 44]: solid | XRPD [1, 44]: Form I | Results ([1]; Entry 63: water, slow cool): solid | XRPD ([1]; Entry 63: water, slow cool): Form III | Results [1, 45]: solid | XRPD [1, 45]: Form I | Results [1, 46]: solid | XRPD [1, 46]: Form I | Results [1, 47]: solid | XRPD [1, 47]: Form I | Results [1, 48]: solid | XRPD [1, 48]: Form I | Results ([1]; Entry 68: DMSO, anti-solvent THF, crash precipitation): no solid | Results [1, 49]: solid | XRPD [1, 49]: Amorphous | Results [1, 50]: solid | XRPD [1, 50]: Form I | Results [1, 51]: solid | XRPD [1, 51]: Form I | Results [1, 52]: solid | XRPD [1, 52]: Form I | Mean AUC0-24 ([2]; male rats, aqueous formulation): 7311 ng·h/mL | Mean Cmax ([2]; male rats, aqueous formulation): 2947 ng/mL | % increase/EYP001 (AUC0-24) [2, 53]: +84% | % increase/EYP001 (Cmax) [2, 53]: +118% | exposure and C max compared to EYP001 free acid ([2]; rat): superiority | variability of the C max (CV %) compared to EYP001 free acid ([2]; rat): strongly reduced | variability of the exposure (CV %) compared to EYP001 free acid ([2]; rat): strongly reduced | solubility compared to EYP001 free acid and EYP001 Potassium salt ([3]; 37° C.): higher solubility | Soluble fraction ([3]; after 0.5 h): 0.44 mg/mL of EYP001 | Soluble fraction ([3]; after 1 h): 0.46 mg/mL of EYP001 | pH ([3]; after 0.5 h): (pH = 5.0) | pH ([3]; after 1 h): (pH = 5.0)
